Assay results taken from patent publication US20040191926A1 (priority 2001, published 2004).
pIC50: −log10 of the molar value.

How the values were obtained:
HePTP = target: T1, HePTP (Homo sapiens, UniProt P35236); test: Phosphatase panel, pNPP assay; type: biochemical; conditions: at 10 μM
T1 construct: (His)6; made in house
T1 sequence (P35236 1-360): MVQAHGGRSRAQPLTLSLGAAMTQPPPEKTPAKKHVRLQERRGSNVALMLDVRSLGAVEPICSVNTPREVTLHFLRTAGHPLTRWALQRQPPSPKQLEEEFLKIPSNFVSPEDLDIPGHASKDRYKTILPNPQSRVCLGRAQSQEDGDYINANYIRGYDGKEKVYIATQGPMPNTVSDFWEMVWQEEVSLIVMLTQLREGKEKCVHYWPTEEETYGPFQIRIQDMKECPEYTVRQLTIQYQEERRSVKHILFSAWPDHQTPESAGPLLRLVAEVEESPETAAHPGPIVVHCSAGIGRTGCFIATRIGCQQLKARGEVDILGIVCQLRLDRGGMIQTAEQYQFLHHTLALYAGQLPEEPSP

LAR = target: T2, LAR (Homo sapiens, UniProt P10586); test: Phosphatase panel, pNPP assay; type: biochemical; conditions: 2 mM pNPP; read-out: Inhibition Potency, IC50
T2 construct: The intracellular fragment of PTPa, LAR and CD45 containing both of the PTPase domains was cleaved off the fusion protein; GST (cleaved yes); made in house
T2 sequence (P10586 1285-1907 limits assumed): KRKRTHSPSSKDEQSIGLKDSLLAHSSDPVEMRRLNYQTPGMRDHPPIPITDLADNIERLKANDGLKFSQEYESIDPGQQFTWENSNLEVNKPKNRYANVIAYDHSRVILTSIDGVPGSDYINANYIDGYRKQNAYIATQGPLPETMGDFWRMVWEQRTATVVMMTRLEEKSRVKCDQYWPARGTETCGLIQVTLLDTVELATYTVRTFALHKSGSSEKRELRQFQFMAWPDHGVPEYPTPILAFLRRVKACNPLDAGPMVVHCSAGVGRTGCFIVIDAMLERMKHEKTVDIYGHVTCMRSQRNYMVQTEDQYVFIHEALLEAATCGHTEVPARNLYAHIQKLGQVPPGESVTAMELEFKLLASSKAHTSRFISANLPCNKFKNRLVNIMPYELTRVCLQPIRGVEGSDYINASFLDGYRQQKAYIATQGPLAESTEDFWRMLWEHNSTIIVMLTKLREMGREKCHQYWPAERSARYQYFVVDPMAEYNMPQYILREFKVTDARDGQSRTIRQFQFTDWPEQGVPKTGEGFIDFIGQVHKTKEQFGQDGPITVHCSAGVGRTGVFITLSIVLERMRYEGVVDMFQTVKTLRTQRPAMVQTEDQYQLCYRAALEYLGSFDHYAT

Yersinia PTP = target: T3, Yersinia PTP (Yersinia enterocolitica, UniProt P15273); test: biochemical
T3 construct: made in house; host or cells: E. coli

PTP1B = target: T4, PTP1B (Homo sapiens, UniProt P18031); test: PTPase activity assay with pNPP substrate; type: biochemical
T4 construct: PTP1B (residues 1-321) (22); made in house; host or cells: E. coli
T4 sequence (P18031 1-321): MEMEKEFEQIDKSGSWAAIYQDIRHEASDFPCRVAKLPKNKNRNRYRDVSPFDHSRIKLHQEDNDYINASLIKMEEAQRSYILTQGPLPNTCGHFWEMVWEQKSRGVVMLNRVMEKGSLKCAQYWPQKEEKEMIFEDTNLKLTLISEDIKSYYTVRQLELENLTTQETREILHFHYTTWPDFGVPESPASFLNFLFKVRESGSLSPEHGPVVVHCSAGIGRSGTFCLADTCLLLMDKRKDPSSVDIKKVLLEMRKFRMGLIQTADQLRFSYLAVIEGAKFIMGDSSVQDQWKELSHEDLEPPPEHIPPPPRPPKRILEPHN

PP2Cα = target: T5, PP2Cα (Homo sapiens, UniProt P35813); test: Phosphatase panel, pNPP assay; type: biochemical; conditions: at 10 μM
T5 sequence (P35813 1-382): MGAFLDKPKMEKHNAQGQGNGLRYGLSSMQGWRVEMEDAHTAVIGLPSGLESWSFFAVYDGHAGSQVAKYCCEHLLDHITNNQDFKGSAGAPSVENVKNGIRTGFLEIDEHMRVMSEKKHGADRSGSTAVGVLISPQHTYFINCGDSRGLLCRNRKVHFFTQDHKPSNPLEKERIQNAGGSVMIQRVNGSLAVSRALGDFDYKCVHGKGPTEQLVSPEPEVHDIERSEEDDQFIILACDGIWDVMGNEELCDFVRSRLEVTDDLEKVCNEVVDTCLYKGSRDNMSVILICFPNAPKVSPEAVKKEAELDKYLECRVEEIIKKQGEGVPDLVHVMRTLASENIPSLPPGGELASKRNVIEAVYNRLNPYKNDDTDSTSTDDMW

PTPα = target: T6, PTPα (Homo sapiens, UniProt P18433); test: Phosphatase panel, pNPP assay; type: biochemical; conditions: at 10 μM
T6 construct: The intracellular fragment of PTPa, LAR and CD45 containing both of the PTPase domains was cleaved off the fusion protein; GST (cleaved yes); made in house

Stp1 = target: T7, Stp1 (Schizosaccharomyces pombe, UniProt P41893); test: Phosphatase panel, pNPP assay; type: biochemical; conditions: at 10 μM
T7 construct: made in house; host or cells: E. coli
T7 sequence (P41893 1-156): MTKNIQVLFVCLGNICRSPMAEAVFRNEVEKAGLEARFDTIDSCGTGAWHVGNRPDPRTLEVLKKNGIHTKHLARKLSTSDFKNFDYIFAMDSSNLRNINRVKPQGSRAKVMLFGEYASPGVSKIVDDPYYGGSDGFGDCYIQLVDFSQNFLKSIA

T3 sequence (P15273 whole entry): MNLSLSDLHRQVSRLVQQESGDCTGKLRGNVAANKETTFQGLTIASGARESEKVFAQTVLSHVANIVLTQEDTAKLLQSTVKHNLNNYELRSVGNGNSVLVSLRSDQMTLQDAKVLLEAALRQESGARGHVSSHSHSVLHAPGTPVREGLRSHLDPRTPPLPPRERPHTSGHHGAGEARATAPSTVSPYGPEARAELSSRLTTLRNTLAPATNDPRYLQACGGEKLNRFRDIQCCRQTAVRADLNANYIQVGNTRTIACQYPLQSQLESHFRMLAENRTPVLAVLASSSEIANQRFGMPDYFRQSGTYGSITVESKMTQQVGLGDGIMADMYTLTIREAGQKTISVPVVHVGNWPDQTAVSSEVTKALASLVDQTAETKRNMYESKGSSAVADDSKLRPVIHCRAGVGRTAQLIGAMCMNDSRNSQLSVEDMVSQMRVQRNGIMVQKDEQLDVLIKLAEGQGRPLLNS

**Q.** With NC(=O)C(Cc1ccc(C(F)(F)P(=O)(O)O)cc1)NC(=O)C(CC(=O)O)NC(=O)Cc1ccc(C(F)(F)P(=O)(O)O)cc1 (centres unmarked) [Compound 40] as the molecule, how does the “Inhibition Potency” value (HePTP) read?
**A.** The value was “No inhibition at 10 μM”.

**Q.** And the pIC50 (LAR)?
**A.** The pIC50 was 4.14.

**Q.** What about the pIC50 (Yersinia PTP) of the same molecule?
**A.** Its pIC50 is 5.80.

**Q.** And the “preference for PTP1B versus nearly all phosphatases examined” value (PTP1B; panel of Table 2)?
**A.** Its value is “greater than three orders of magnitude”.

**Q.** And the mode of inhibition (PTP1B; with respect to the substrate pNPP)?
**A.** Its mode of inhibition is “competitive”.

**Q.** What about the “Inhibition Potency” value (PP2Cα) of the same molecule?
**A.** Its value is “No inhibition at 10 μM”.

**Q.** What about the “Inhibition Potency” value (PTPα) of the same molecule?
**A.** Its value is “No inhibition at 10 μM”.

**Q.** And the “Inhibition Potency” value (Stp1)?
**A.** Its value is “No inhibition at 10 μM”.
